Patent US5357044A, “Cecropins fusion proteins” (Xoma Corporation, priority 1993, dated 1994)
Ends that are not written are not given here.

Key:
Bacillus megaterium = settings: background art; cited from earlier work
E. coli = settings: background art; cited from earlier work
[1] = system: eight other species of bacteria; settings: background art; cited from earlier work
Xenohabdus nematophillus = assay: Bactericidal agar-well halo assay, Xenohabdus nematophillus; assay type: cell-based; settings: CNBr-digested fusion protein isolate 5 ug
Description: Cyanogen bromide-digested fusion protein fractionated by HPLC was also applied to this assay. […] Cyanogen bromide-digested and undigested fusion protein samples were applied in the amounts described above in the testing of E. coli strain JF568, and the resulting halo diameters were measured.

E. coli 5506 = assay: Bactericidal agar-well halo assay, E. coli 5506; assay type: cell-based
Description: (§1) Agar plates (8 cm in diameter) were prepared with 6 ml of TYE medium containing about 10^7 viable cells of test organism. Wells, 2 mm diameter, were punched in the plates. The test material was dissolved in 50 mM phosphate buffer (pH 6.6) and 3 ul was applied to each well. The diameters of the inhibition zones, or halos, around the wells were measured after overnight incubation at 25° C. To determine a standard of halo formation, CA 1-33 protein was used. 1 ug and 3 ug of CA 1-33 in well applications caused halos with diameters of 8 mm and 11 mm respectively, on media infused with E. coli strain JF568. 10 ug and 30 ug of cyanogen bromide-digested pCA3A araB-CA fusion protein caused halos with diameters 7 mm and 18 mm respectively.
(§2) Cyanogen bromide-digested fusion protein fractionated by HPLC was also applied to this assay. […] Other bacterial and yeast strains were also tested in this assay. Cyanogen bromide-digested and undigested fusion protein samples were applied in the amounts described above in the testing of E. coli strain JF568, and the resulting halo diameters were measured.

Pseudomonas PS-9 = assay: Bactericidal agar-well halo assay, Pseudomonas PS-9; assay type: cell-based; settings: CNBr-digested fusion protein isolate 5 ug
Description: as §1, §2

Salmonella derby = assay: Bactericidal agar-well halo assay, Salmonella derby; assay type: cell-based
Description: as §1, §2

Serratia marcesens = assay: Bactericidal agar-well halo assay, Serratia marcesens; assay type: cell-based; settings: CNBr-digested fusion protein isolate 5 ug
Description: as §1, §2

E. coli 5506 DR = assay: Bactericidal agar-well halo assay, E. coli 5506 DR; assay type: cell-based
Description: as §1, §2

Klebsiella pneumoniae = assay: Bactericidal agar-well halo assay, Klebsiella pneumoniae; assay type: cell-based; settings: CNBr-digested fusion protein isolate 5 ug
Description: as §1, §2

Erwinia carotovora EC = assay: Bactericidal agar-well halo assay, Erwinia carotovora EC; assay type: cell-based
Description: as §1, §2

Streptococcus faecalis = assay: Bactericidal agar-well halo assay, Streptococcus faecalis; assay type: cell-based; settings: ampicillin 750 ng
Description: as §1, §2

[2] = CNBr-digested fusion protein isolate 5 ug

In the case of cecropin D, the “sensitivity of the bacterium to the cecropin” value (from here on “sensitivity of the bacterium”) (Bacillus megaterium) is given as “relatively resistant”, the “activity against E. coli relative to cecropins A and B” value (E. coli) is given as “almost as much activity” and the “activity against eight other species of bacteria” value [1] is given as “significantly reduced activity”.

For “pCA3D: CNBr-digested araB-CA fusion protein isolate from E. coli carrying plasmid pCA3D; releases wild type cecropin A (KWKLFKKIEKVGQNIRDGIIKAGPAVAVVGQATQIAK; ends and bridges not checked; UniProt P01507 27-63, looked up)”, the “Halo Activity in Millimeters” value (Xenohabdus nematophillus) was 2.75 Millimeters, the “Halo Activity in Millimeters” value (E. coli 5506; [2]) was 5.0 Millimeters and the “Halo Activity in Millimeters” value (Pseudomonas PS-9) was 2.0 Millimeters. For the same molecule, the “Halo Activity in Millimeters” value (Salmonella derby; [2]) was 5.0 Millimeters, the “Halo Activity in Millimeters” value (Serratia marcesens) was 1.0 Millimeters and the “Halo Activity in Millimeters” value (E. coli 5506 DR; [2]) was 6.5 Millimeters. For the same molecule, the “Halo Activity in Millimeters” value (Klebsiella pneumoniae) was 4.5 Millimeters and the “Halo Activity in Millimeters” value (Erwinia carotovora EC; [2]) was 4.75 Millimeters.

For “cecropin A: natural antibacterial peptide purified from immune hemolymph of the Cecropia moth (KWKLFKKIEKVGQNIRDGIIKAGPAVAVVGQATQIAK; UniProt P01507 27-63, looked up)”, the “sensitivity of the bacterium” value (Bacillus megaterium) is given as “highly sensitive”.

For `CC1(C)S[C@@H]2[C@H](NC(=O)[C@H](N)c3ccccc3)C(=O)N2[C@H]1C(=O)O` [Ampicillin, ampicillin], the “Halo Activity in Millimeters” value (E. coli 5506; ampicillin 750 ng) was 4.5 Millimeters, the “Halo Activity in Millimeters” value (Salmonella derby; ampicillin 750 ng) was 6.0 Millimeters and the “Halo Activity in Millimeters” value (Streptococcus faecalis) was 7.0 Millimeters. For the same molecule, the “Halo Activity in Millimeters” value (E. coli 5506 DR; ampicillin 750 ng) was 4.5 Millimeters and the “Halo Activity in Millimeters” value (Erwinia carotovora EC; ampicillin 750 ng) was 6.5 Millimeters.

For “cecropin B: natural antibacterial peptide purified from immune hemolymph; sequence shown in b10 (KWKVFKKIEKMGRNIRNGIVKAGPAIAVLGEAKAL; UniProt P01508 27-61, looked up)”, the “sensitivity of the bacterium” value (Bacillus megaterium) is given as “highly sensitive”.
